Experimental data: PubChem BioAssay AID1508612

Assay: passive permeability, PAMPA, ADME assay (AID 1508612)
Conditions: pH 7.4, 30.0 min, 50.0 µM

SMILES	Papp
COc1cccc(CN(C)c2ccc([S+](=O)([O-])Nc3nccs3)cc2)c1O	868 ×10⁻⁶ cm/s
CCN(CC)CCCC(C)Nc1cc(/C=C/c2ccccc2Cl)nc2cc(Cl)ccc12 (configuration not stated)	833 ×10⁻⁶ cm/s
Cc1ccccc1OCC(O)CO (configuration not stated)	44.4 ×10⁻⁶ cm/s
N#Cc1cccc(-c2csc(N3CCC(C(N)=O)CC3)n2)c1	450 ×10⁻⁶ cm/s
CCOc1ccccc1C(=O)NC1CCN(c2cc(C)cc(C)c2)C1=O (configuration not stated)	> 1000 ×10⁻⁶ cm/s
c1ccc(Nc2cc(-c3ccoc3)ncn2)cc1	> 1000 ×10⁻⁶ cm/s
Cc1ccc(NS(=O)(=O)c2cc3c(cc2N[C@H](C)CO)NC(=O)CC3)cc1C	273 ×10⁻⁶ cm/s
Cc1ccc(S(=O)(=O)Nc2cnccc2C(=O)Nc2nc(-c3ccccc3)cs2)cc1	724 ×10⁻⁶ cm/s
Cc1ccc(-n2c(C)cc(-c3nnc4n3CCCCC4)c2C)cc1	> 1000 ×10⁻⁶ cm/s
COc1ccc(CNC(=O)c2sc3nc(C)cc(C)c3c2N)cc1	> 1000 ×10⁻⁶ cm/s
COC12C(COC(N)=O)C3=C(C(=O)C(C)=C(N)C3=O)N1CC1C2N1C (configuration not stated)	1.95 ×10⁻⁶ cm/s
COc1ccc(-c2ccc3nc(-c4cc(C)cc(C)c4)oc3c2)c(OC)c1OC	< 1 ×10⁻⁶ cm/s
CC(=O)c1cccc(-c2csc3ncnc(Sc4nnnn4C)c23)c1	239 ×10⁻⁶ cm/s
CCN(C(=O)C(NS(=O)(=O)c1ccc(Br)s1)c1ccccc1)c1ccc(C)c(C)c1 (configuration not stated)	392 ×10⁻⁶ cm/s
CC(=O)N[C@H]1CN(C2CCN(c3ccc(F)cc3C)CC2)C[C@@H]1C1CC1	> 1000 ×10⁻⁶ cm/s
CCN(CC)[S+](=O)([O-])c1cc(NC(=O)c2[nH]c(C)c(C(C)=O)c2C)ccc1OC	645 ×10⁻⁶ cm/s
COc1ccc(CCn2c(N)cc(=O)[nH]c2=S)cc1OC	7.34 ×10⁻⁶ cm/s
CCN(CC)CCNC(=O)c1c(C)[nH]c(/C=C2\C(=O)Nc3ccc(F)cc32)c1C	235 ×10⁻⁶ cm/s
CCN(CC)CCCCNc1ncc2cc(-c3c(Cl)cccc3Cl)c(NC(=O)NC(C)(C)C)nc2n1	> 1000 ×10⁻⁶ cm/s
CC(C)CN(CC(=O)N(CCCN1CCCC1=O)CC(N)=O)C(=O)CNCCc1ccccc1F	11.6 ×10⁻⁶ cm/s
Cc1nc(Sc2nnnn2C)c2c(-c3ccccc3)csc2n1	826 ×10⁻⁶ cm/s
COc1ccc(NC(=O)C2=C(C)NC(Nc3nc4ccccc4o3)=NC2c2ccccc2Br)cc1 (configuration not stated)	371 ×10⁻⁶ cm/s
COc1ccc(NC(=O)c2[nH]c(C)c(C(C)=O)c2C)cc1S(=O)(=O)Nc1cccc(C#N)c1	30.9 ×10⁻⁶ cm/s
Cc1ccc(S(=O)(=O)Nc2ccccc2C(=O)Nc2nc(-c3ccccc3)cs2)cc1	> 1000 ×10⁻⁶ cm/s
Cc1ccc(S(=O)(=O)Nc2ccccc2C(=O)Nc2nc(-c3ccc(Cl)cc3)cs2)cc1	16.6 ×10⁻⁶ cm/s
Cc1c(C(=O)OCCOc2ccccc2)[nH]c2c1C(=O)CC(c1ccccc1)C2 (configuration not stated)	276 ×10⁻⁶ cm/s

SMILES	Papp
CC(C)c1nc(CN(C)C(=O)N[C@H](C(=O)N[C@@H](Cc2ccccc2)C[C@H](O)[C@H](Cc2ccccc2)NC(=O)OCc2cncs2)C(C)C)cs1	> 1000 ×10⁻⁶ cm/s
Cc1nc(-c2ccccc2)cc([C@H]2CN3CC[C@H]2C[C@@H]3CNC2CCOCC2)n1	369 ×10⁻⁶ cm/s
Cc1ccc(-c2nnc(N3CCC(C(N)=O)CC3)s2)cc1	246 ×10⁻⁶ cm/s
Clc1ccc(-c2nnc(C3CCCCC3)o2)cc1	> 1000 ×10⁻⁶ cm/s
O=C1CCc2ccc(OCCCCN3CCN(c4cccc(Cl)c4Cl)CC3)cc2N1	> 1000 ×10⁻⁶ cm/s
Cc1c(C(=O)NN2CCCCC2)nn(-c2ccc(Cl)cc2Cl)c1-c1ccc(Cl)cc1	> 1000 ×10⁻⁶ cm/s
Nc1scc2c(C(=O)O)nn(-c3ccccc3)c(=O)c12	< 1 ×10⁻⁶ cm/s
Cc1cc(C)nc(NS(=O)(=O)c2ccc(NC(=S)NC(=O)COc3ccc(Br)cc3Cl)cc2)n1	457 ×10⁻⁶ cm/s
NC(=O)C1CCN(c2nc(-c3cccc4ccccc34)cs2)CC1	641 ×10⁻⁶ cm/s
CC(C)n1cc(-c2ccc3c(c2)N(C)CC3)c2c(NS(=O)(=O)c3ccn(C)n3)ccnc21	> 1000 ×10⁻⁶ cm/s
NC(=O)C1CCN(c2nc(-c3ccccc3Cl)cs2)CC1	517 ×10⁻⁶ cm/s
O=C(c1ccc2ncccc2c1)N1CCc2c(nc3cc[nH]n3c2=O)C1	101 ×10⁻⁶ cm/s
C[C@]1(CO)CN(c2cc(C(=O)Nc3ccc4c(c3)-c3c(c(C(N)=O)nn3-c3ccc(F)cc3)CC4)c(Cl)cn2)C[C@@]1(C)CO	18.5 ×10⁻⁶ cm/s
Cc1cc(-c2nnc3n2CCCCC3)c(C)n1-c1ccc(F)cc1	314 ×10⁻⁶ cm/s
O=C(C1CCN(c2nc(-c3ccc(Br)cc3)cs2)CC1)N1CCOCC1	236 ×10⁻⁶ cm/s
Cc1ccc(S(=O)(=O)Nc2cnccc2C(=O)Nc2nc(-c3cccc(C)c3)cs2)cc1	729 ×10⁻⁶ cm/s
O=C1Cc2cc(C(=O)c3ccco3)ccc2N1	35.2 ×10⁻⁶ cm/s
CCN1C(=O)c2ccccc2S(=O)c2ccc(NC(=O)Cc3ccc(OC)cc3)cc21 (configuration not stated)	> 1000 ×10⁻⁶ cm/s
CC1(C)CC2CC(C)(CN2S(=O)(=O)c2ccc(C(=O)Nc3ccc(Cl)cc3)cc2)C1 (configuration not stated)	> 1000 ×10⁻⁶ cm/s
NC(=O)C1CCN(c2ncc(-c3cccc(N4CCOCC4)c3)s2)CC1	374 ×10⁻⁶ cm/s
CCOC(=O)c1ccnc(CNCC(=O)N(CC)CCN(C)C)c1	40.4 ×10⁻⁶ cm/s
COCCNc1ncc(-c2cccc(O)c2)c2c1OCC2	412 ×10⁻⁶ cm/s
CC(=O)c1sc(NC(=O)c2ccco2)nc1-c1ccccc1	752 ×10⁻⁶ cm/s
CCn1ncc(NC(=O)Cn2ncc3cc(-c4cccc(OC)c4)ccc32)n1	> 1000 ×10⁻⁶ cm/s
O=C(Nc1ccccc1C(=O)Nc1ccccc1C(=O)NCc1ccco1)c1ccco1	> 1000 ×10⁻⁶ cm/s
Fc1cc(Nc2nc(-c3ccncc3)nc3ccccc23)ccc1C(F)(F)F	641 ×10⁻⁶ cm/s
